According to patent publication US8030500B2, “Substituted isoindoles for the treatment and/or prevention of Aβ- related pathologies” (AstraZeneca AB, priority 2008, dated 2011):

Target: T1, human β-Secretase (Homo sapiens, UniProt P56817)
T1 construct: soluble part of the human β-Secretase (AA 1-AA 460); Fc domain of IgG1; made in house
Assay: TR-FRET assay (β-secretase enzyme, sBACE-Fc)
Type: biochemical
Conditions: soluble human β-secretase (sBACE-Fc), substrate (Europium)[…](Qsy7) 100 nM, pH4.5; read-out: IC50 in TR-FRET assay
Experimental: The β-secretase enzyme used in the TR-FRET is prepared as follows:
The cDNA for the soluble part of the human β-Secretase (AA 1-AA 460) was cloned using the ASP2-Fc10-1-IRES-GFP-neoK mammalian expression vector. The gene was fused to the Fc domain of IgG1 (affinity tag) and stably cloned into HEK 293 cells.
The robotic systems Biomek FX and Velocity 11 were used for all liquid handling and the enzyme and substrate solutions were kept on ice until they were placed in the robotic system. Enzyme (9 μl) was added to the plate then 1 μl of compound in dimethylsulphoxide was added, mixed and pre-incubated for 10 minutes. Substrate (10 μl) was then added, mixed and the reaction proceeded for 15 minutes at room temperature. The reaction was stopped with the addition of Stop solution (7 μl, NaAcetate, pH 9). […] The dimethylsulphoxide control, instead of test compound, defined the 100% activity level and 0% activity was defined by wells lacking enzyme (replaced with reaction buffer).

T1 sequence (P56817 22-460): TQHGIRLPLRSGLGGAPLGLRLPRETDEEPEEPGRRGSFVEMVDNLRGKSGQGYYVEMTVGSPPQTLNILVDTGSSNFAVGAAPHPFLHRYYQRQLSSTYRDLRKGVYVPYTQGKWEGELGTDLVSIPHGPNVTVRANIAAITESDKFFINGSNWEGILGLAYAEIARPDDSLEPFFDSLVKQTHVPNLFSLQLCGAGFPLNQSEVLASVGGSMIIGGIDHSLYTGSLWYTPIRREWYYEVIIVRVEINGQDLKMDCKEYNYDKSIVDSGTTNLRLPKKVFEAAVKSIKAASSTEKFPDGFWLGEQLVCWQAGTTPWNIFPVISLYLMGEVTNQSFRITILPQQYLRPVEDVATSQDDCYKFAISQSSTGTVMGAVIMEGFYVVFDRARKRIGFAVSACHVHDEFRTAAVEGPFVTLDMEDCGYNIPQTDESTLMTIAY

SMILES | IC50
COc1cc(C2(c3cccc(-c4cc(C#N)ccn4)c3)N=C(N)c3c(F)cccc32)ccn1 (stereo not shown) [Example 39, 2-(3-(3-Amino-4-fluoro-1-(2-methoxypyridin-4-yl)-1H-isoindol-1-yl)phenyl)isonicotinonitrile] | 1100 nM
NC1=NC(c2ccnc(-c3cncnc3)c2)(c2ccnc(C(F)F)c2)c2cccc(F)c21 (stereo not shown) [Example 42, 1-(2-(Difluoromethyl)pyridin-4-yl)-4-fluoro-1-(2-(pyrimidin-5-yl)pyridin-4-yl)-1H-isoindol-3-amine] | 310 nM
Cc1cc(C2(c3cccc(-c4cncnc4)c3)N=C(N)c3c(F)cccc32)nc(C)n1 (stereo not shown) [Example 45, 1-(2,6-Dimethylpyrimidin-4-yl)-4-fluoro-1-(3-(pyrimidin-5-yl)phenyl)-1H-isoindol-3-amine] | 270 nM
NC1=NC(c2ccnc(C(F)(F)F)c2)(c2ccc(O)c(-c3cnccn3)c2)c2cccc(F)c21 (stereo not shown) [Example 50, 4-(3-Amino-4-fluoro-1-(2-(trifluoromethyl)pyridin-4-yl)-1H-isoindol-1-yl)-2-(pyrazin-2-yl)phenol] | 420 nM
COc1ccc(C2(c3ccnc(C(F)(F)F)c3)N=C(N)c3c(F)cccc32)cc1-c1cncnc1 (stereo not shown) [Example 51, 4-Fluoro-1-(4-methoxy-3-(pyrimidin-5-yl)phenyl)-1-(2-(trifluoromethyl)pyridin-4-yl)-1H-isoindol-3-amine] | 5600 nM
NC1=NC(c2ccnc(-c3cncnc3)c2)(c2ccnc(C3CC3)c2)c2cccc(F)c21 (stereo not shown) [Example 52, 1-(2-Cyclopropylpyridin-4-yl)-4-fluoro-1-(2-(pyrimidin-5-yl)pyridin-4-yl)-1H-isoindol-3-amine] | 690 nM
Cc1cc(C2(c3ccnc(-c4cncc(F)c4)c3)N=C(N)c3c(F)cccc32)nc(C)c1OC(F)F (stereo not shown) [Example 53, 3-(5-Difluoromethoxy-4,6-dimethyl-pyridin-2-yl)-7-fluoro-3-(5′-fluoro-[2,3′]bipyridinyl-4-yl)-3H-isoindol-1-ylamine] | 910 nM
NC1=NC(c2cccc(-c3cncnc3)c2)(c2ccnc(C(F)(F)F)c2)c2cc(Cl)cc(F)c21 (stereo not shown) [Example 55, 6-Chloro-4-fluoro-1-(3-(pyrimidin-5-yl)phenyl)-1-(2-(trifluoromethyl)pyridin-4-yl)-1H-isoindol-3-amine] | 150 nM
Cc1cc(C2(c3cccc(-c4cncnc4)c3)N=C(N)c3c(F)cc(Cl)cc32)ccn1 (stereo not shown) [Example 56, 6-Chloro-4-fluoro-1-(2-methylpyridin-4-yl)-1-(3-(pyrimidin-5-yl)phenyl)-1H-isoindol-3-amine] | 230 nM

The remaining lines, values ahead:

IC50 | SMILES
560 nM | COc1ccc(C2(c3cccc(-c4cncnc4)c3)N=C(N)c3c(F)cccc32)cc1C#N (stereo not shown) [Example 43, 5-(3-Amino-4-fluoro-1-(3-(pyrimidin-5-yl)phenyl)-1H-isoindol-1-yl)-2-methoxybenzonitrile]
79 nM | COc1c(C)cc(C2(c3cccc(-c4cncnc4)c3)N=C(N)c3c(F)cccc32)nc1C (stereo not shown) [Example 44, 4-Fluoro-1-(5-methoxy-4,6-dimethylpyridin-2-yl)-1-(3-(pyrimidin-5-yl)phenyl)-1H-isoindol-3-amine]
690 nM | COc1cc(C2(c3cccc(-c4cncnc4)c3)N=C(N)c3c(F)cccc32)cc(F)c1F (stereo not shown) [Example 46, 1-(3,4-Difluoro-5-methoxyphenyl)-4-fluoro-1-(3-(pyrimidin-5-yl)phenyl)-1H-isoindol-3-amine]
83 nM | COc1c(C)cc(C2(c3cccc(-c4cncnc4)c3)N=C(N)c3c(F)cccc32)cc1CC#N (stereo not shown) [Example 47, 2-(5-(3-Amino-4-fluoro-1-(3-(pyrimidin-5-yl)phenyl)-1H-isoindol-1-yl)-2-methoxy-3-methylphenyl) acetonitrile]
350 nM | COc1cc(C2(c3cccc(-c4cncnc4)c3)N=C(N)c3c(F)cccc32)ccc1F (stereo not shown) [Example 48, 4-Fluoro-1-(4-fluoro-3-methoxyphenyl)-1-(3-(pyrimidin-5-yl)phenyl)-1H-isoindol-3-amine]
600 nM | COc1ncc(C2(c3cccc(-c4cncnc4)c3)N=C(N)c3c(F)cccc32)cc1C(F)(F)F (stereo not shown) [Example 49, 4-Fluoro-1-(6-methoxy-5-(trifluoromethyl)pyridin-3-yl)-1-(3-(pyrimidin-5-yl)phenyl)-1 H-isoindol-3-amine]
42 nM | COc1c(C)cc(C2(c3cccc(-c4cncnc4)c3)N=C(N)c3c(F)cccc32)cc1C#N (stereo not shown) [Example 54, 5-(3-Amino-4-fluoro-1-(3-(pyrimidin-5-yl)phenyl)-1H-isoindol-1-yl)-2-methoxy-3-methylbenzonitrile]
